The values that follow come from patent US20200339604A1, “PYRAZOLOPYRIMIDINE COMPOUNDS AS JAK INHIBITORS” (Genentech, Inc., priority 2018, published 2020).

Test [1] has as its target T1, isolated recombinant JAK1 kinase domain (Homo sapiens, UniProt P23458).
T1 construct: isolated recombinant JAK1 and JAK2 kinase domain
Kind of test: JAK enzyme assay, JAK1 kinase domain (Caliper LabChip). To be noted: 1.5 nM JAK1, ATP 25 μM, Morrison tight binding model. The class given is biochemical. The gist of the method: (§1)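 JAK1 (1.5 nM) or JAK2 (0.2 nM) kinase domain phosphorylated a 5-FAM JAK3-derived peptide (1.5 μM) with 25 μM ATP in HEPES pH 7.2, 2% DMSO, 30 min at 22° C. After EDTA stop, phosphorylated fraction was measured on Caliper LabChip; Ki from Morrison tight-binding fits corrected for ATP competition.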

Test [2] concerns the target T2, isolated recombinant JAK2 kinase domain (Homo sapiens, UniProt O60674).
T2 construct: isolated recombinant JAK1 and JAK2 kinase domain
Kind of test: JAK enzyme assay, JAK2 kinase domain (Caliper LabChip). The class given is biochemical. To be noted: 0.2 nM JAK2, ATP 25 μM, Morrison tight binding model. The gist of the method: as §1

Test [3] has as its system JAK1-dependent STAT6 phosphorylation downstream of IL-13 stimulation, BEAS-2B human bronchial epithelial cells. Kind of test: JAK1 pathway assay in cell lines: IL-13 stimulated STAT6 phosphorylation in BEAS-2B cells (MSD). It is filed as cell-based. To be noted: IL-13 stimulation 15 min at EC90, read-out: IL-13 p-STAT6 BEAS-2B IC50. The procedure: JAK1 Pathway Assay in Cell Lines was Carried Out as Follows:
Inhibitor potency (EC50) was determined in cell-based assays designed to measure JAK1 dependent STAT phosphorylation. As noted above, inhibition of IL-4, IL-13, and IL-9 signaling by blocking the Jak/Stat signaling pathway can alleviate asthmatic symptoms in pre-clinical lung inflammation models (Mathew et al., 2001, J Exp Med 193(9): 1087-1096; Kudlacz et. al., 2008, Eur J. Pharmacol 582(1-3): 154-161).
In one assay approach, TF-1 human erythroleukemia cells obtained from the American Type Culture Collection (ATCC; Manassas, Va.) were used to measure JAK1-dependent STAT6 phosphorylation downstream of IL-13 stimulation. Prior to use in the assays, TF-1 cells were starved of GM-CSF overnight in OptiMEM medium (Life Technologies, Grand Island, N.Y.) supplemented with 0.5% charcoal/dextran stripped fetal bovine serum (FBS), 0.1 mM non-essential amino acids (NEAA), and 1 mM sodium pyruvate. The assays were run in 384-well plates in serum-free OptiMEM medium using 300,000 cells per well. In a second assay approach, BEAS-2B human bronchial epithelial cells obtained from ATCC were plated at 100,000 cells per well of a 96-well plate one day prior to the experiment. The BEAS-2B assay was run in complete growth medium (bronchial epithelial basal medium plus bulletkit; Lonza; Basel, Switzerland).
Test compounds were serially diluted 1:2 in DMSO and then diluted 1:50 in medium just before use. Diluted compounds were added to the cells, for a final DMSO concentration of […], and incubated for 30 m (for the TF-1 assay) or […] (for the BEAS-2B assay) at 37° C. Then, cells were stimulated with human recombinant cytokine at their respective EC90 concentrations, as previously determined for each individual lot. Cells were stimulated with IL-13 (R&D Systems, Minneapolis, Minn.) for 15 min at 37° C. The TF-1 cell reactions were stopped by the direct addition of 10× lysis buffer (Cell Signaling Technologies, Danvers, Mass.), whereas the BEAS-2B cell incubations were halted by the removal of medium and addition of 1× lysis buffer. The resultant samples were frozen in the plates at −80° C. Compound mediated inhibition of STAT6 phosphorylation was measured in the cell lysates using MesoScale Discovery (MSD) technology (Gaithersburg, Md.).

Where two headings read alike, the source gives them in different places.

T1 sequence (P23458 875-1153 limits assumed): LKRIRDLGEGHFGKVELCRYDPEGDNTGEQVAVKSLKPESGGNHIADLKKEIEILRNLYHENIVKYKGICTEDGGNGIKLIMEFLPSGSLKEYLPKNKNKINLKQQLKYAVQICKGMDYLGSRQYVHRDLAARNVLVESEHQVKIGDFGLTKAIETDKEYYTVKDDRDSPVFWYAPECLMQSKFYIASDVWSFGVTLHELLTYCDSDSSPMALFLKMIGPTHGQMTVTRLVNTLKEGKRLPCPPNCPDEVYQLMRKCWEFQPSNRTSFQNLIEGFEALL
T2 sequence (O60674 849-1124 limits assumed): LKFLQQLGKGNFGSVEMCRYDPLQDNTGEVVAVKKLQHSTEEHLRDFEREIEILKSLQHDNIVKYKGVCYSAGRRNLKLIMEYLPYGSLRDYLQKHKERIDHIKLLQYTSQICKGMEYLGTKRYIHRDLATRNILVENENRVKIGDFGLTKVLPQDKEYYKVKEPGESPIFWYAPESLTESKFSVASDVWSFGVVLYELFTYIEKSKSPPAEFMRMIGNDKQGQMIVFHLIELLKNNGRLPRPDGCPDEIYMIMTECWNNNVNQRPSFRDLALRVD

Turning to `O=C(Nc1cn(C2CCOC2=O)nc1-c1cc(Cl)ccc1OC(F)F)c1cnn2cccnc12` (single isomer, unassigned) [Example 28, N-[3-[5-chloro-2-(difluoromethoxy)phenyl]-1-(2-oxotetrahydrofuran-3-yl)pyrazol-4-yl]pyrazolo[1,5-a]pyrimidine-3-carboxamide], the Ki in test [1] is 0.35 nM; in test [2], 0.2 nM. Further, in test [3], the IC50 amounted to 11 nM.

For the compound `CSc1ccc(OC(F)F)c(-c2nn(C3CCOC3=O)cc2NC(=O)c2cnn3cccnc23)c1` (single isomer, unassigned) [Example 29, N-[3-[2-(difluoromethoxy)-5-methylsulfanyl-phenyl]-1-(2-oxotetrahydrofuran-3-yl)pyrazol-4-yl]pyrazolo[1,5-a]pyrimidine-3-carboxamide], the Ki in test [1] was 0.3 nM; in test [2], 0.15 nM. Moreover, in test [3] (Homo sapiens, BEAS-2B, […]), the IC50 was 9.2 nM.

Take `CSc1ccc(OC(F)F)c(-c2nn(C3CCOC3=O)cc2NC(=O)c2cnn3cccnc23)c1` (single isomer, unassigned) [Example 30, N-[3-[2-(difluoromethoxy)-5-methylsulfanyl-phenyl]-1-(2-oxotetrahydrofuran-3-yl)pyrazol-4-yl]pyrazolo[1,5-a]pyrimidine-3-carboxamide]: the figures for the Ki in test [1] and in test [2] were 0.15 nM and 0.096 nM, respectively. Moreover, the IC50 in test [3] was found to be 11 nM.

For the compound `O=C(Nc1cn(C2CCOC2=O)nc1-c1cc(SC(F)F)ccc1OC(F)F)c1cnn2cccnc12` (single isomer, unassigned) [Example 31, N-[3-[2-(difluoromethoxy)-5-(difluoromethyl-sulfanyl)phenyl]-1-(2-oxotetrahydrofuran-3-yl)pyrazol-4-yl]pyrazolo[1,5-a]pyrimidine-3-carboxamide], the Ki came out at 0.7 nM in test [1] and 0.4 nM in test [2]. In test [3], the IC50 was 16 nM.

Regarding `O=C(Nc1cn(C2CCOC2=O)nc1-c1cc(SC(F)F)ccc1OC(F)F)c1cnn2cccnc12` (single isomer, unassigned) [Example 32, N-[3-[2-(difluoromethoxy)-5-(difluoromethyl-sulfanyl)phenyl]-1-(2-oxotetrahydrofuran-3-yl)pyrazol-4-yl]pyrazolo[1,5-a]pyrimidine-3-carboxamide], the Ki amounted to 0.17 nM in test [1] and 0.11 nM in test [2]. Also, the IC50 in test [3] amounted to 6.6 nM.

As to `O=C(Nc1cn(C2CCOC2=O)nc1-c1cc(OC(F)F)ccc1OC(F)F)c1cnn2cccnc12` (single isomer, unassigned) [Example 36, N-[3-[2,5-bis(difluoromethoxy)phenyl]-1-(2-oxotetrahydrofuran-3-yl)pyrazol-4-yl]pyrazolo[1,5-a]pyrimidine-3-carboxamide], the Ki in test [1] is 0.65 nM; in test [2], 0.4 nM. For the same compound, the IC50 in test [3] (Homo sapiens, BEAS-2B, […]) worked out at 18 nM.

Turning to `O=C(Nc1cn(C2CCOC2=O)nc1-c1cc(OC(F)F)ccc1OC(F)F)c1cnn2cccnc12` (single isomer, unassigned) [Example 37, N-[3-[2,5-bis(difluoromethoxy)phenyl]-1-(2-oxotetrahydrofuran-3-yl)pyrazol-4-yl]pyrazolo[1,5-a]pyrimidine-3-carboxamide], the Ki worked out at 0.26 nM in test [1] and 0.18 nM in test [2]. The IC50 in test [3] was found to be 14 nM.

`CS(=O)(=O)c1ccc(OC(F)F)c(-c2nn(C3CCOC3=O)cc2NC(=O)c2cnn3cccnc23)c1` (single isomer, unassigned) [Example 40, N-[3-[2-(difluoromethoxy)-5-methylsulfonyl-phenyl]-1-(2-oxotetrahydrofuran-3-yl)pyrazol-4-yl]pyrazolo[1,5-a]pyrimidine-3-carboxamide]: the Ki in test [1] stood at 1.1 nM; in test [2], 0.62 nM. The IC50 in test [3] (Homo sapiens, BEAS-2B, […]) was 120 nM.

`CS(=O)(=O)c1ccc(OC(F)F)c(-c2nn(C3CCOC3=O)cc2NC(=O)c2cnn3cccnc23)c1` (single isomer, unassigned) [Example 41, N-[3-[2-(difluoromethoxy)-5-methylsulfonyl-phenyl]-1-(2-oxotetrahydrofuran-3-yl)pyrazol-4-yl] pyrazolo[1,5-a]pyrimidine-3-carboxamide]: the Ki in test [1] was found to be 0.4 nM; in test [2], 0.23 nM. The IC50 in test [3] came out at 99 nM.

Turning to `CN1CC[C@H](n2cc(NC(=O)c3cnn4cccnc34)c(-c3cc(Cl)ccc3OC(F)F)n2)C1=O` (stereo in doubt) [Example 2, N-[3-[5-chloro-2-(difluoromethoxy)phenyl]-1-[rac-(3S)-1-methyl-2-oxo-pyrrolidin-3-yl]pyrazol-4-yl]pyrazolo[1,5-a]pyrimidine-3-carboxamide], the inhibitory constant (Ki) in test [1] is 0.21 nM; in test [2], 0.4 nM. In addition, in test [3] (Homo sapiens, BEAS-2B, […]), the IC50 is 12 nM.

Consider `CN1CC[C@@H](n2cc(NC(=O)c3cnn4cccnc34)c(-c3cc(Cl)ccc3OC(F)F)n2)C1=O` (stereo in doubt) [Example 3, N-[3-[5-chloro-2-(difluoromethoxy)phenyl]-1-[rac-(3R)-1-methyl-2-oxo-pyrrolidin-3-yl]pyrazol-4-yl]pyrazolo[1,5-a]pyrimidine-3-carboxamide], for which the Ki in test [1] turned out to be 2.5 nM; in test [2] it was 0.81 nM. Also, in test [3] (Homo sapiens, BEAS-2B, […]), the IC50 is 50 nM.

On to `Cn1[nH]cc(-n2cc(NC(=O)c3cnn4cccnc34)c(-c3cc(Cl)ccc3OC(F)F)n2)c1=O` [Example 26], for which the Ki in test [1] is 1.4 nM; in test [2], 0.14 nM. In addition, the concentration for half-maximal inhibition (IC50) in test [3] (Homo sapiens, BEAS-2B, […]) was found to be 280 nM.

As usually defined, the Ki is a dissociation constant, usually derived from enzyme kinetics or from competition with a known ligand. As a reminder, the IC50 is the concentration needed to halve the response being measured.
